The values below come from US5441983A, “Treatment of infection by enveloped virus with calix(N)arene compounds” (Genelabs Incorporated, priority 1992, dated 1995).

What is called IC50 is the concentration that inhibits the measured activity by half. Read a high IC50 as lower potency.

The subject of experiment [1] is HSV-1. Put plainly: Plaque reduction assay, HSV-1, Vero cells. Type of experiment: cell-based, HSV-1 (Kos-1). To be noted: Human alphaherpesvirus 1, Vero, plaque reduction, Vero cells.
Another experiment deals with HSV-2. Put plainly: Plaque reduction assay, HSV-2, Vero cells. Type of experiment: cell-based, HSV-2 (333). To be noted: Human alphaherpesvirus 2, Vero. (Plaques are areas of infected cells; plaque reduction assays count them against a control.)
The next experiment concerns HSV-2 333. Briefly: Inhibition of viral yield, wild type HSV-2 333. The conditions noted are these: Human alphaherpesvirus 2, HeLa, read-out: ID90.
The test system of a further experiment is HIV-HXB. Put plainly: Inhibition of syncytia formation, HIV-HXB (HTLV-IIIB). The conditions noted are these: Human immunodeficiency virus 1, 18 h, read-out: HIV-HXB ED100, complete inhibition of syncytia formation.
Another experiment relates to HSV-1 KOS (PFA)'. Put plainly: Inhibition of viral yield, drug-resistant HSV-1 KOS(PFA)'. The conditions noted are these: Human alphaherpesvirus 1, HeLa, read-out: ID90.
The test system of experiment [2] is HSV-1. Briefly: Inactivation of purified HSV-1 by compound, plaque number after serial dilution. To be noted: for Plaque number, dilution 10^2 / Plaque number, dilution 10^3 / Plaque number, dilution 10^4 / Plaque number, dilution 10^5 / Plaque number, dilution 1 / Plaque number, dilution 10^1: 10 μg/ml, duplicate.
Protocol: In a third study, purified HSV-1 virus suspensions were incubated with KY-1 or the sodium salt thereof, or a control solution for 1 hour, then serially diluted to drug concentrations between 10^1 to 10^-4 μg/ml as described in Example 16. The "X" symbol in the table indicates plaques too numerous to count.
Purified HSV-1 was suspended in RPMI-1640 medium (Gibco Laboratories) containing 2% FCS, penicillin and streptomycin. […] The suspensions were incubated for 1 hour at 37° C., then diluted serially at 10 fold dilutions to final drug concentrations of 10, 10^0, 10^-1, 10^-2, 10^-3 and 10^-4 μg/ml drug concentrations The serially diluted particles were then added to Vero cells for two hours, as in Example 6, and the cells examined for plaques 48 hours later.

In brackets after ≈: the same amount, converted by molar mass.

Protocol for HIV-HXB: Briefly, cells chronically infected with HTLV-IIIB or RF-II HIV strains were incubated in the presence of serial dilutions of the selected KY compound, then further cocultured with indicator cells. The extent of syncytia formation was scored under phase microscopy.
Representative calix(n)arene compounds from Table 2 were tested for inhibition of cytopathic effects in cells infected with one of two HTLV-III strains, HTLV-IIIB and RF-II strains, as described in Example 12, and in the subsection above.
Human CD4^+ indicator cells (VB) and chronically infected H9 cells were maintained in RPMI-1640 medium supplemented with 5% fetal calf serum, 100 Units of penicillin per ml and 100 μg of streptomycin per ml at 37° C. in a humidified incubator containing 7% CO2.
For the fusion assay, serial dilutions between 1:2 and 1:2^8 of a selected KY compound, 1 mg/ml in PBS were made in a 96 well round bottom plate. The diluted KY compound was transferred to a 96 well flat-bottom plate. To each well was added 25 μg chronically infected H9 cells (at 2×10^6, cells/ml), or cells chronically infected with RF-II strain HIV, followed by incubation at 37° C. for 45 minutes. To each well was then added 25 μl VB cells (about 5×10^4 cells), and the cells and virus isolates were cocultured for 18 hours in a humid 5% CO2 atmosphere.
Protocol for HSV-1 KOS (PFA)': (§1) These compounds tested were the nucleoside analogs acyclovir (ACV), ganciclovir (DHPG), phosphonoformate (PFA), and phosphomethoxyethyladenine (PMEA). Inhibition of viral yield was determined, as above, by infecting Hela cells in the presence of wild type or drug-resistant strains of HSV-1 or HSV-2, and serial dilutions of a selected anti-viral compound, and infecting Vero cells with serial dilutions of the Hela cell lysate, as above.
(§2) The KOS (HSV-1) and 333 (HSV-2) are wild type viruses; the KOS(PMEA)' and KOS(PFA)' are drug-resistant HSV-1 strains having a DNA polymerase mutation. The 333(DHPG) strain is a drug-resistantHSV-2 strain having a thymidine kinase mutation.
(§3) The following strains of HSV-1 and HSV-2 virus were used: KOS, a wild type HSV-1 virus; KOS (PMEA) and KOS (PFA), both drug-resistant HSV-1 viruses having a DNA polymerase mutation; 333, a wild type HSV-2 HSV-2 virus, and 333 (DHPG), a drug-resistant HSV-2 virus having a thymidine kinase mutation.
(§4) After growth at 37° C. for 24 hours in 2 ml of RPMI-1640 containing 2% FCS and penicillin and streptomycin (P/S), the cells were frozen at -70° C. until the time for titration. The cells were freeze/thawed 3 times to release virus from the cells, serially diluted 10 fold, and the serial dilutions were added to Vero cells in culture. After 2 hours incubation at 37° C. the virus was removed and 0.5 ml methycellulose (4K cps) in RPMI-1640 and 2% FCS+P/S was added. Two days later, the medium was removed. The cells were stained in 0.8% crystal violet in 50% ethanol. The plaques formed were counted and the titer was calculated from the fold of dilutions. From the drug dose response, the concentration of each drug required to effect a 90% inhibition of virus yield, the IC90 concentration was determined.
Protocol for HSV-2 333: as §1, §2, §3, §4

Regarding `O=S(=O)(O)c1cc2cc(S(=O)(=O)O)c3c(O)c2c(O)c1Cc1c(S(=O)(=O)O)cc2cc(S(=O)(=O)O)c(c(O)c2c1O)Cc1c(S(=O)(=O)O)cc2cc(S(=O)(=O)O)c(c(O)c2c1O)Cc1c(S(=O)(=O)O)cc2cc(S(=O)(=O)O)c(c(O)c2c1O)C3` [KY-1], the 50% inhibitory concentration (IC50) worked out at 2.7 µg/mL (≈ 2.03 µM) in the experiment with HSV-1 [1] and 1.7 µg/mL (≈ 1.28 µM) with HSV-2. Further, the IC90 in the experiment on HSV-2 333 worked out at 3.2 µg/mL (≈ 2.41 µM); in the experiment on HSV-1 KOS (PFA)', 4.3 µg/mL (≈ 3.23 µM). Also, the EC100 in the experiment on HIV-HXB amounted to 8 µg/mL. For the same compound, the “Plaque number, dilution 10^2” value is 0,0 with HSV-1 [2] (0.3 pfu/cell) and 17,16 in the experiment with HSV-1 [2] (3 pfu/cell, listed as KY 1). For the same compound, the “Plaque number, dilution 10^3” value with HSV-1 [2] (0.3 pfu/cell) is recorded as 0,0; with HSV-1 [2] (3 pfu/cell, listed as KY 1), 5,2. Besides, the “Plaque number, dilution 10^4” value with HSV-1 [2] (0.3 pfu/cell) and with HSV-1 [2] (3 pfu/cell) was 0,0 throughout. Moreover, the “Plaque number, dilution 10^5” value in the experiment with HSV-1 [2] (0.3 pfu/cell) and in the experiment with HSV-1 [2] (3 pfu/cell) was 0,0 in each case. In addition, the “Plaque number, dilution 1” value is given as 3,2 with HSV-1 [2] (0.3 pfu/cell, listed as KY 1) and 2,2 in the experiment with HSV-1 [2] (3 pfu/cell, listed as KY 1). For the same compound, the “Plaque number, dilution 10^1” value in the experiment on HSV-1 [2] (0.3 pfu/cell, listed as KY 1) was 0,0; with HSV-1 [2] (3 pfu/cell, listed as KY 1), 2,1. The “final drug concentration with complete virus inhibition” value with HSV-1 [2] (after dilution of treated virus) is listed as 10^-2 to 10^-4 μg/ml.
